Values quoted from earlier work in patent US20070224292A1, “Extended effect ergogenic drink” (priority 2006, published 2007).
Where two headings read alike, the source gives them in different places. One block for each molecule: values may come before it.

Tests used:
[1] = 200 to 400 mcg chromium three times per day, polynicotinate or picolinate form
[2] = three women; 1 mg chromium with 100 mg vitamin C versus 1 mg chromium without vitamin C
[3] = animals; given at the same time as vitamin C
[4] = during exercise in normal subjects
[5] = visual monitoring test simulating night driving
[6] = after two hours; males (but not females)
[7] = first fifteen minutes of exercise
[8] = in vivo
[9] = immediate-release nicotinic acid
[10] = for time to reach peak serum concentrations: following ingestion

Molecule: [Cr] [Chromium]
effect on insulin sensitivity [1]: improve insulin sensitivity | plasma levels of chromium [2]: higher plasma levels of chromium | chromium uptake [3]: enhanced

Molecule: Cn1c(=O)c2c(ncn2C)n(C)c1=O [Caffeine]
circulating free fatty acids and glycerol [4]: increase circulating free fatty acids and glycerol | time to reach peak levels in the bloodstream (absorbed through stomach and small intestine): 15 to 45 min | half-life, women taking oral contraceptives (women taking oral contraceptives): up to 12 hours | effect on attention lapses [5]: prevent attention lapses | CNS stimulation compared to placebo [6]: lower CNS (Central Nervous System) stimulation | reduction of the loss of glycogen [7]: fifty

Molecule: Chromium Polynicotinate
effect on blood lipid levels [8]: lower blood lipid levels

duration of flushing [9]: up to one | time to onset of flushing following ingestion [9]: ≤ 20 min | time to reach peak serum concentrations ([10]; extended-release form): 4 to 5 h | half-life ([10]; immediate release Niacin): approximately 1 hour | time to reach peak serum concentrations ([10]; immediate-release or crystalline form): approximately 45 minutes
Molecule: O=C(O)c1cccnc1 [Niacin, Nicotinic acid]
